Five sequences from patent US20060128628A1, “Human tissue antigen-binding peptides and their amino acid sequences” (priority 2004, published 2006) can be followed below.

In test [1] the target is T1, human tissue antigen 0201 (HLA-A0201) (Homo sapiens, UniProt P04439, D140Y/D185E/D98H/E176V/E277Q/G131W/G231S/I119V/I121R/I166T/I218V/L300P/L318F/N151K/N90K/P208A/P217A/Q86G/Q94H/R138H/R169H/T345S).
T1 construct: T2 cell line is a cell line lacking of the transporters associated with antigen processing (TAP), TAP1 and TAP2; endogenous in cells; host or cells: T2 cell line (TAP1/TAP2-deficient)
The test is classed as cell-based.

The subject of test [2] is spleen lymphocytes expressing simultaneously CD8+ and IFN-γ+. Also on record: species or system C57BL/6 mice transgenic for human tissue antigen 0201. The conditions noted are these: in vivo.

ILPDPLKPT [S6]: in test [1], the “binding to human tissue antigen 0201 on T2 cells (HLA-A2 expression, median fluorescence intensity)” value is “could bind to the human tissue antigen 0201” and the “relative binding ability among peptides S1-S10 in the T2 cell binding test” value was “strongest binding ability”. Besides, in test [2], the “induction of antigen-specific cytotoxicity (lymphocytes expressing simultaneously CD8+ and IFN-γ+)” value was “could induce cytotoxicity”; the “induction of cytotoxicity by vaccine containing peptide (proportion of spleen lymphocytes expressing CD8+ and IFN-γ+)” value was “could induce cytotoxicity”.
As to NLNESLIDL [S1], the “binding to human tissue antigen 0201 on T2 cells (HLA-A2 expression, median fluorescence intensity)” value in test [1] is recorded as “could bind to the human tissue antigen 0201”.
As for VLNDILSRL [S4], the “binding to human tissue antigen 0201 on T2 cells (HLA-A2 expression, median fluorescence intensity)” value in test [1] is “could bind to the human tissue antigen 0201”.
Regarding VLYENQKQI [S5], the “binding to human tissue antigen 0201 on T2 cells (HLA-A2 expression, median fluorescence intensity)” value in test [1] is “could bind to the human tissue antigen 0201”.
Turning to VVFLHVTYV [S2], in test [1], the “binding to human tissue antigen 0201 on T2 cells (HLA-A2 expression, median fluorescence intensity)” value is recorded as “could bind to the human tissue antigen 0201” and the “relative binding ability among peptides S1-S10 in the T2 cell binding test” value is recorded as “strongest binding ability”. Also, in test [2], the “induction of antigen-specific cytotoxicity (lymphocytes expressing simultaneously CD8+ and IFN-γ+)” value is reported as “could induce cytotoxicity”; the “induction of cytotoxicity by vaccine containing peptide (proportion of spleen lymphocytes expressing CD8+ and IFN-γ+)” value is recorded as “could induce cytotoxicity”.
